The record followed here is article PMC10363480 (Plant Communications, 2023).

In one test the test system is mitochondria or chloroplast of Chlamydomonas reinhardtii. Put plainly: Subcellular localization of Venus reporter by epifluorescence microscopy (manual targeting assignment). Type of test: cell-based. As to conditions: C-terminal element of CAG2-mTP added to the named peptide; Figure 2 rows C and D; bare name = K and R versions. A digest of the protocol: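 Targeting peptide variants fused to Venus reporter, transformed into Chlamydomonas wild-type T222+ (CC-5101); three independent transformant lines per construct. Localization assigned manually from epifluorescence images using chlorophyll autofluorescence for chloroplast and 0.1 μM MitoTracker Red CMXRos (30 min) for mitochondria. Automated segmentation used for validation.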
For the sequence “SFLTTFKDLAIKAAKSAGQSVLSTLSCKLSNTC [B2I, brevinin-2ISb, HA-RAMP antimicrobial peptide, reference compound]”, the “mitochondrial targeting upon addition of mTP-C (P^m)” value is recorded as “continued targeting”.

Still in this test, the particulars now being: C-terminal element of RCA1-cTP added; Figure 2 rows E and F.
Regarding “SFLTTFKDLAIKAAKSAGQSVLSTLSCKLSNTC [B2I, brevinin-2ISb, HA-RAMP antimicrobial peptide, reference compound]”, the “mitochondrial localization upon addition of cTP-C (P^c)” value was “compatible with mitochondrial localization”.

The same test, now with this note: manual targeting assignment of the Venus reporter construct in Chlamydomonas: Neither / Mitochondria / Chloroplast / Dual, (partial) = partial targeting.
On to “MSVRRAQLQVVASSRKQMGRWRSIDAGVDASDDQ [-.c]”, for which the Localisation result was “Neither”.
Regarding “MRYYGNGVSCNRRGCSVDWGRAIGIIGNNAAANLTTGGRAGWRGLTQTAESFRGVSSQFFDAPNGPSVKQVLIEDEW [EHF.R.m]”, the Localisation result is reported as “Chloroplast”.
Same read-out and setting: with MLKRVGQSLVPFARAG [MH.R] the entry was “Mitochondria (partial)”.
“MGLLLDTLRGAARDIAGIALERLRCRITGCRPLTQTAESFRGVSSQFFDAPNGPSVKQVLIEDEW [R2G.R.m]”: the Localisation entry is reported as “Mitochondria”.
On the same count and under the same terms, with “MLKRVGQSLVPFARAGSVRRAQLQVVASSRKQMGRWRSIDAGVDASDDQ [MH.R.c]” the entry was “Dual”; with MQVTMKSSAVSGQRVGGARVATR [c.CH.R], “Neither”; with MLKKVGQSLVPFAKAG [MH.K], “Neither”.
For the sequence “MQVTMKSSAVSGQRVGGARVATRLTQTAESFRGVSSQFFDAPNGPSVKQVLIEDEW [c.CH.R.m]”, the Localisation entry is reported as “Neither”.
As for MDEVNNDNCRIRFRGDISSESDRMNINY [RP2.R], the Localisation entry is listed as “Neither”.
For “MRYYGNGVSCNRRGCSVDWGRAIGIIGNNAAANLTTGGRAGWRGSVRRAQLQVVASSRKQMGRWRSIDAGVDASDDQ [EHF.R.c]”, the Localisation entry is listed as “Chloroplast”.
On the same count and under the same terms, for “MALWRTMLRRLGTMALHAGRAAFGAAADTISQLTQTAESFRGVSSQFFDAPNGPSVKQVLIEDEW [DDM.R.m]” the value was “Neither”.
The same measure, in the same setting: with MGGARVATR [CH.R] the entry was “Neither”; with “MQVTMKSSAVSGQRVDEVNNDNCRIRFRGDISSESDRMNINYLTQTAESFRGVSSQFFDAPNGPSVKQVLIEDEW [c.RP2.R.m]”, “Neither”; with “MQVTMKSSAVSGQRVMLKRVGQSLVPFARAGSVRRAQLQVVASSRKQMGRWRSIDAGVDASDDQ [c.MH.R.c]”, “Chloroplast”.
As for “MQVTMKSSAVSGQRVSFLTTFRDLAIRAARSAGQSVLSTLSCRLSNTC [c.B2I.R]”, the Localisation entry is given as “Mitochondria (partial)”.
Still for that read-out and setting: with “MQVTMKSSAVSGQRVRYYGNGVSCNRRGCSVDWGRAIGIIGNNAAANLTTGGRAGWRG [c.EHF.R]” the entry was “Chloroplast (partial)”.
Regarding “MQVTMKSSAVSGQRVGRIPVRAIRRAGAAIGRGLRAINIASTAHDVYSFFRPRHRRR [c.SIM.R]”, the Localisation entry was “Chloroplast”.
The same measure, in the same setting: with “MQVTMKSSAVSGQRVMLKKVGQSLVPFAKAGLTQTAESFKGVSSQFFDAPNGPSVKQVLIEDEW [c.MH.K.m]” the entry was “Neither”.

Still in this test, the particulars now being: peptide inserted upstream of Venus, stable Chlamydomonas lines, epifluorescence, MitoTracker / chlorophyll / pyrenoid co-localization, three independent insertion lines.
Consider “SFLTTFKDLAIKAAKSAGQSVLSTLSCKLSNTC [B2I, brevinin-2ISb, HA-RAMP antimicrobial peptide, reference compound]”, for which the “organelle targeting (Venus reporter localization) by the construct as labelled” value is on record as “mitochondrial localization”.

The same test, now with this note: peptide-Venus reporter construct expressed in Chlamydomonas reinhardtii; manual targeting assignment (Neither / Mitochondria / Chloroplast / Dual; partial = partial targeting).
As for MFLPLLAGLAANFLPRIFCRITRRC [B1E.R], the Localisation entry is listed as “Neither”.
On to “MQVTMKSSAVSGQRVMKYYGNGVHCTRSGCSVNWGEAFSAGVHRLANGGNGFWLTQTAESFRGVSSQFFDAPNGPSVKQVLIEDEW [c.LCA.R.m]”, for which the Localisation entry is given as “Neither”.
Still for that read-out and setting: with “MKYYGNGVHCTKSGCSVNWGEAFSAGVHRLANGGNGFW [LCA.K]” the entry was “Neither”; with “MGIGRFLHSARRFGRAFVGEIMNSSVRRAQLQVVASSRKQMGRWRSIDAGVDASDDQ [MII.R.c]”, “Mitochondria”; with “MKYYGNGVHCTKSGCSVNWGEAFSAGVHRLANGGNGFWSVRRAQLQVVASSRKQMGRWRSIDAGVDASDDQ [LCA.K.c]”, “Chloroplast (partial)”.
Turning to “MQVTMKSSAVSGQRVMWLSKTAKKLENSAKKRISEGIAIAIKGGSRSVRRAQLQVVASSRKQMGRWRSIDAGVDASDDQ [c.CP3.K.c]”, the Localisation result is reported as “Neither”.
Still for that read-out and setting: with “MQVTMKSSAVSGQRVGIGKFLHSAKKFGKAFVGEIMNSSVRRAQLQVVASSRKQMGRWRSIDAGVDASDDQ [c.MII.K.c]” the entry was “Chloroplast”; with “MVNYGNGVSCSRTRCSVNWGIITHQAFRVTSGVASGLTQTAESFRGVSSQFFDAPNGPSVKQVLIEDEW [B15.R.m]”, “Neither”; with “MALWMTLLKKVLKAAAKAALNAVLVGANASVRRAQLQVVASSRKQMGRWRSIDAGVDASDDQ [DS4.K.c]”, “Neither”.
In the case of “MQVTMKSSAVSGQRVMKYYGNGVHCTKSGCSVNWGEAFSAGVHRLANGGNGFWLTQTAESFRGVSSQFFDAPNGPSVKQVLIEDEW [c.LCA.K.m]”, the Localisation entry is “Chloroplast”.
Turning to “MWLSRTARRLENSARRRISEGIAIAIRGGSRSVRRAQLQVVASSRKQMGRWRSIDAGVDASDDQ [CP3.R.c]”, the Localisation entry was “Chloroplast”.
Still for that read-out and setting: with “MFLPLLAGLAANFLPRIFCRITRRCSVRRAQLQVVASSRKQMGRWRSIDAGVDASDDQ [B1E.R.c]” the entry was “Neither”; with “MWLSKTAKKLENSAKKRISEGIAIAIKGGSRLTQTAESFRGVSSQFFDAPNGPSVKQVLIEDEW [CP3.K.m]”, “Neither”.
Same read-out and setting: for “MFLPLLAGLAANFLPRIFCRITRRCLTQTAESFRGVSSQFFDAPNGPSVKQVLIEDEW [B1E.R.m]” the value was “Neither”; for “MQVTMKSSAVSGQRVMKYYGNGVHCTKSGCSVNWGEAFSAGVHRLANGGNGFW [c.LCA.K]”, “Neither”; for MFLPLLAGLAANFLPKIFCKITRKC [B1E.K], “Neither”.
As for MALWMTLLKKVLKAAAKAALNAVLVGANA [DS4.K], the Localisation result is “Neither”.

Staying with this test, now noted: targeting of the Venus reporter fused to the peptide, expressed in Chlamydomonas reinhardtii; manual assignment from epifluorescence microscopy; full or partial.
Turning to “MGKIPVKAIKKAGAAIGKGLRAINIASTAHDVYSFFKPKHKKK [SIM.K]”, the Localisation result is given as “Neither”.
The same measure, in the same setting: for “MQVTMKSSAVSGQRVMWLSKTAKKLENSAKKRISEGIAIAIKGGSR [c.CP3.K]” the value was “Neither”; for “MQVTMKSSAVSGQRVDEVNNDNCRIKFKGDISSESDKMNINY [c.RP2.K]”, “Neither”; for “MQVTMKSSAVSGQRVMGKIPVKAIKKAGAAIGKGLRAINIASTAHDVYSFFKPKHKKK [c.SIM.K]”, “Chloroplast (partial)”.
As for “MQVTMKSSAVSGQRVFLPLLAGLAANFLPRIFCRITRRC [c.B1E.R]”, the Localisation result was “Mitochondria”.
Still for that read-out and setting: with “MQVTMKSSAVSGQRVMGKIPVKAIKKAGAAIGKGLRAINIASTAHDVYSFFKPKHKKKLTQTAESFRGVSSQFFDAPNGPSVKQVLIEDEW [c.SIM.K.m]” the entry was “Chloroplast”; with “MQVTMKSSAVSGQRVMGLFSRFNRRRIRSGLIRIIRTAGREAGLEALRTGIDVIGCRIRGECLTQTAESFRGVSSQFFDAPNGPSVKQVLIEDEW [c.E1S.R.m]”, “Chloroplast”; with “MALWKTMLKKLGTMALHAGKAAFGAAADTISQSVRRAQLQVVASSRKQMGRWRSIDAGVDASDDQ [DDM.K.c]”, “Neither”.
Same read-out and setting: for “MQVTMKSSAVSGQRVMGWIRDFGKRIERVGQHTRDATIQTIAVAQQAANVAATLKGSVRRAQLQVVASSRKQMGRWRSIDAGVDASDDQ [c.S1D.K.c]” the value was “Chloroplast”; for “MQVTMKSSAVSGQRVMGKIPVKAIKKAGAAIGKGLRAINIASTAHDVYSFFKPKHKKKSVRRAQLQVVASSRKQMGRWRSIDAGVDASDDQ [c.SIM.K.c]”, “Chloroplast”; for “MQVTMKSSAVSGQRVMGLFSKFNKKKIKSGLIKIIKTAGKEAGLEALRTGIDVIGCKIKGEC [c.E1S.K]”, “Neither”.
For “MDEVNNDNCRIKFKGDISSESDKMNINYSVRRAQLQVVASSRKQMGRWRSIDAGVDASDDQ [RP2.K.c]”, the Localisation entry was “Neither”.
